What was measured:
[1] = test system: H1975 NSCLC cells; experiment: growth inhibition of H1975 NSCLC cells cultured alone under conventional static culture conditions; format: cell-based; conditions: Homo sapiens, NCI-H1975, read-out: half-maximal inhibition
[2] = test system: H1975 NSCLC cells; experiment: NSCLC cancer cell growth in microfluidic device (orthotopic lung model) with or without breathing motions; format: cell-based, human; conditions: H1975 NSCLC cells cultured within the microfluidic devices
Method: Primary human lung microvascular endothelial cells were plated the same way as discussed above, except that these cells were plated first with endothelial growth medium. The GFP-labeled NSCLC tumor cells and primary alveolar epithelial cells were then plated using the same method as described above. The following day, the upper microchannel was perfused with epithelial growth medium containing 1 μM dexamethasone and flushed manually for 2-3 days, after which the medium in the upper microchannel was removed to create an air-liquid interface, while the lower microchannel was continuously perfused with air-liquid interface medium at 60 μL/hr. […]
Analysis of cancer cell growth and responses of cancer cells can be monitored visually through the microfluidic device. As discussed above, cancer cell growth can be monitored non-invasively using fluorescence microscopy, such as with a Zeiss TIRF/LSM 710 confocal microscopy and Hamamatsu ImagEM-1K BackThinned EMCCD camera. The number of GFP-labeled cancer cells can be estimated using fluorescence microscopy based on a standard curve generated experimentally that correlates cell density to GFP fluorescence intensity. […]

[3] = test system: c-Met; experiment: c-Met expression and phosphorylation in NSCLC cells under cyclic mechanical strain; format: cell-based, human
Excerpt: Further, many patients with the EGFR […]/T790M mutation who develop resistance to 3rd generation TKIs overexpress the tyrosine protein kinase c-Met, and c-MET overexpression has been implicated as a mechanism of resistance to TKI therapy in NSCLC patients. […] Thus, mechanical breathing motions also may suppress NSCLC cell response to TKI therapy by altering this signaling pathway.

SMILES	IC50 [1] [nM]	response of NSCLC cells to TKIs [2]	effect of increasing dose on expression and phosphorylation of c-Met [3]
C#Cc1cccc(Nc2ncnc3cc(OCCOC)c(OCCOC)cc23)c1 [erlotinib]	~100	responded	–
C=CC(=O)Nc1cccc(Nc2nc(Nc3ccc(N4CCN(C(C)=O)CC4)cc3OC)ncc2C(F)(F)F)c1 [rociletinib]	> 1000	–	no significant effect
